Our source for the % of control values is ChEMBL document CHEMBL5465560, “Selectivity Literature for EUbOPEN Chemogenomic Library” (2024).

The structures appear in SMILES notation.

The target of experiment [1] is T1, Myosin light chain kinase family member 4 (Homo sapiens) (UniProt Q86YV6).
T1 sequence (whole entry): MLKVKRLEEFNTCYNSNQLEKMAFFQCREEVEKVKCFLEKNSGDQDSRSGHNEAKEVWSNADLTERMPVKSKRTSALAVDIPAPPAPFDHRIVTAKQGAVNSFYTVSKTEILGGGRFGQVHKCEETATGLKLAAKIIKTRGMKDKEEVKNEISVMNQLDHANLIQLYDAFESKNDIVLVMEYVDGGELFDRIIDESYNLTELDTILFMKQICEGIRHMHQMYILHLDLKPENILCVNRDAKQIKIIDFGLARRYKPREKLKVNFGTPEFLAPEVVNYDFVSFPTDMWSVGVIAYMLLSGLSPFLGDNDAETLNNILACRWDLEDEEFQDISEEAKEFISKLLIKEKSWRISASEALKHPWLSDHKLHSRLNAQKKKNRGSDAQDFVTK
As to the kind of experiment: Selectivity interaction (KinomeScan (DiscoverX)) EUB0000607a MYLK4. The conditions noted are these: at 10 µM.

Experiment [2] relates to Hepatocyte growth factor receptor (Homo sapiens), P08581 [M1250T]. The conditions noted are these: at 10 µM.
Hepatocyte growth factor receptor (Homo sapiens), P08581 [M1250T], sequence (P08581 whole entry M1250T): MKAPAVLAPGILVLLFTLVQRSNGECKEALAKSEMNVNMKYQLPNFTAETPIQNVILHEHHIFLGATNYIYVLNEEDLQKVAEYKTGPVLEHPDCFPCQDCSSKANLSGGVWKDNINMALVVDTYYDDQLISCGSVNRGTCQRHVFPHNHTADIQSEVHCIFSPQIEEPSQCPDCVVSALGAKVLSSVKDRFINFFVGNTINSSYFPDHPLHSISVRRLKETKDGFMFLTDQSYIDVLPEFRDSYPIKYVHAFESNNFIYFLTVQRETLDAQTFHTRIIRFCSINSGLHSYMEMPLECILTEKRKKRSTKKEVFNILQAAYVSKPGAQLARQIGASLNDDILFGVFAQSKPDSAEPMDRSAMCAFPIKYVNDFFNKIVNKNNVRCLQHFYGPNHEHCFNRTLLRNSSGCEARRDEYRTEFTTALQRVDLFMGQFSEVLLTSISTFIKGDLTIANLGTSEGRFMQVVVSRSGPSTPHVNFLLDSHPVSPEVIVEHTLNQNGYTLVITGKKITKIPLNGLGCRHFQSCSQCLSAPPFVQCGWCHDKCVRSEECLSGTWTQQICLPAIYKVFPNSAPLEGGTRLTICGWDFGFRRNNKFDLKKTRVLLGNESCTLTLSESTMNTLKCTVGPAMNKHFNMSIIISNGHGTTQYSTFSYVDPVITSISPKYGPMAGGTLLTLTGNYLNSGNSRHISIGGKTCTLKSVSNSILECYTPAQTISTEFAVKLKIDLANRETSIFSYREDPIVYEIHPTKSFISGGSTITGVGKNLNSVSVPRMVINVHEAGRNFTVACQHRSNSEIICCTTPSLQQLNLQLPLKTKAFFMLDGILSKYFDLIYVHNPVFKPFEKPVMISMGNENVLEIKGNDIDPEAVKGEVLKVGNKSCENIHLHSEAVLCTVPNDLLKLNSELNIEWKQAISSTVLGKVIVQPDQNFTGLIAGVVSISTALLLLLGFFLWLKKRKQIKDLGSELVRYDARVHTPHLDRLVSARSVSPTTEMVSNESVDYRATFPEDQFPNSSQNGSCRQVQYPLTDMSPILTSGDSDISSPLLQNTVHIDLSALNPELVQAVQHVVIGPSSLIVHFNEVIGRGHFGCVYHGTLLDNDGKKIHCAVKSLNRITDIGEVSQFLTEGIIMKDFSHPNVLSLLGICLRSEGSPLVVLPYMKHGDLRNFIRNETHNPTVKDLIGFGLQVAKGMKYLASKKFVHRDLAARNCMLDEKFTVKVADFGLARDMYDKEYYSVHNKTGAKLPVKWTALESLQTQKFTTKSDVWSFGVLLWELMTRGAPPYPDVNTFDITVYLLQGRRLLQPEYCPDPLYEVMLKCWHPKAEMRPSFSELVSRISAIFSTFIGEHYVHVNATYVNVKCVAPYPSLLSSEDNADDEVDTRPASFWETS
Experiment [3] addresses T2, Serine/threonine-protein kinase MAK (Homo sapiens) (UniProt P20794).
T2 sequence (whole entry): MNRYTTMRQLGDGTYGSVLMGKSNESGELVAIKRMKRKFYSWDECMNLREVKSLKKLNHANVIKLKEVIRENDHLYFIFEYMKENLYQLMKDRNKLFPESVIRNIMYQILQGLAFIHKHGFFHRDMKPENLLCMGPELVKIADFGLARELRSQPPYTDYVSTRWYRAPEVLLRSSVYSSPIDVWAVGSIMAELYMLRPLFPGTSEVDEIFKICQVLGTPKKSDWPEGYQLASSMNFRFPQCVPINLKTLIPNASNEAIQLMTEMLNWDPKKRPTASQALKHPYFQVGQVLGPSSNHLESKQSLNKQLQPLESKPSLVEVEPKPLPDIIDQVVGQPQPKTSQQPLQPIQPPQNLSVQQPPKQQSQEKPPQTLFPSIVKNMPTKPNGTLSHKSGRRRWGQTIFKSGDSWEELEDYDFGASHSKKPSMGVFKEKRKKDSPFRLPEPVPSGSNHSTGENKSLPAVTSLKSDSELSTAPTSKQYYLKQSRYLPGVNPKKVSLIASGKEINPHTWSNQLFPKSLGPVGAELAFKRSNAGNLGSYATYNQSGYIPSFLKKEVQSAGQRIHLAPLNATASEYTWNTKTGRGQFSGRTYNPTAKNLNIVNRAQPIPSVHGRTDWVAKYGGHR
Nature of the experiment: Selectivity interaction (KinomeScan (DiscoverX)) EUB0000666a MAK. The conditions noted are these: at 10 µM.

The target of experiment [4] is T3, Interleukin-1 receptor-associated kinase 4 (Homo sapiens) (UniProt Q9NWZ3).
T3 sequence (whole entry): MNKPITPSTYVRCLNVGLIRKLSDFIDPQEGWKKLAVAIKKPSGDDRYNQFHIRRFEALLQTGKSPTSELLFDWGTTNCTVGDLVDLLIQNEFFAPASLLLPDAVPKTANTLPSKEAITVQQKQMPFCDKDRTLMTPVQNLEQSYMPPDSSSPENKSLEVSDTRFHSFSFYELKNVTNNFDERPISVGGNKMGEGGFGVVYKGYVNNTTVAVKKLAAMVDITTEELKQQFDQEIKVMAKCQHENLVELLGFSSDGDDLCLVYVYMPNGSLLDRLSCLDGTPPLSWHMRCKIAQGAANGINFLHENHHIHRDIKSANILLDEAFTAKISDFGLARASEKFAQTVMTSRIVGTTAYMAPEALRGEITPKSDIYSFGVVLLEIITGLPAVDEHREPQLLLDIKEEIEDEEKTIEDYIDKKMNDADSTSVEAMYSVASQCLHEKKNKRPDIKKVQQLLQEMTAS
Nature of the experiment: Selectivity interaction (KinomeScan (DiscoverX)) EUB0000655a IRAK4. The settings on record: at 10 µM.

Experiment [5] deals with Cyclin-dependent kinase 17 (Homo sapiens) (UniProt Q00537). The conditions noted are these: at 10 µM.
Cyclin-dependent kinase 17 (Homo sapiens), sequence (Q00537 whole entry, looked up): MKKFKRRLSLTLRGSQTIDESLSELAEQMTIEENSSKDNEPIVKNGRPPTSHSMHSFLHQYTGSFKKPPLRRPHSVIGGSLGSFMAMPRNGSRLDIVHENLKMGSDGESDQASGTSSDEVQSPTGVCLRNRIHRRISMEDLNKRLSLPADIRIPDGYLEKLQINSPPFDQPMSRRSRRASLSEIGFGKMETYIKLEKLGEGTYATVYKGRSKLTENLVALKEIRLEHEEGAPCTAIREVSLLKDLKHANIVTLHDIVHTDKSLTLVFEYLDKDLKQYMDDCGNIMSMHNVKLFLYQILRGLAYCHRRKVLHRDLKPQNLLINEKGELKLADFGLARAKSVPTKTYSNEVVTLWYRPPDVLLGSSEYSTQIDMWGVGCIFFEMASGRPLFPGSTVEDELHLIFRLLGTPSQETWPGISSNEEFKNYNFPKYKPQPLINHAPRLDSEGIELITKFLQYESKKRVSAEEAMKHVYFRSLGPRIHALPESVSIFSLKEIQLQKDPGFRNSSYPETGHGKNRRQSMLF
For experiment [6], the target named is T4, Serine/threonine-protein kinase Chk1 (Homo sapiens) (UniProt O14757).
T4 sequence (whole entry): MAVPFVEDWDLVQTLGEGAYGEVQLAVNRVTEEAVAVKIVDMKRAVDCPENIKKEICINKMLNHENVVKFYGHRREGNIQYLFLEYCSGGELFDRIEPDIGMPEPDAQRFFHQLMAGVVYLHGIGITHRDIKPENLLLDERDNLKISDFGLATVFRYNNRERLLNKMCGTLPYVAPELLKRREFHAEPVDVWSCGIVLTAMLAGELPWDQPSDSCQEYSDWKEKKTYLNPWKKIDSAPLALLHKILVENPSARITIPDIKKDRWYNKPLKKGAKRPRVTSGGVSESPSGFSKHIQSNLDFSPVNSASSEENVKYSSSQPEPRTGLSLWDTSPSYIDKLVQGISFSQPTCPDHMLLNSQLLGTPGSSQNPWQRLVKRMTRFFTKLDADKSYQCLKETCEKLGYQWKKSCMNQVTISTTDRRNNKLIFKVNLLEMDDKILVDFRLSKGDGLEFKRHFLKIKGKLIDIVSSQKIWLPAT
As to the kind of experiment: Selectivity interaction (KinomeScan (DiscoverX)) EUB0001049a CHEK1. The conditions noted are these: at 1 µM.

Experiment [7] concerns the target T5, Cyclin-dependent kinase 11A (Homo sapiens) (UniProt Q9UQ88).
T5 sequence (whole entry): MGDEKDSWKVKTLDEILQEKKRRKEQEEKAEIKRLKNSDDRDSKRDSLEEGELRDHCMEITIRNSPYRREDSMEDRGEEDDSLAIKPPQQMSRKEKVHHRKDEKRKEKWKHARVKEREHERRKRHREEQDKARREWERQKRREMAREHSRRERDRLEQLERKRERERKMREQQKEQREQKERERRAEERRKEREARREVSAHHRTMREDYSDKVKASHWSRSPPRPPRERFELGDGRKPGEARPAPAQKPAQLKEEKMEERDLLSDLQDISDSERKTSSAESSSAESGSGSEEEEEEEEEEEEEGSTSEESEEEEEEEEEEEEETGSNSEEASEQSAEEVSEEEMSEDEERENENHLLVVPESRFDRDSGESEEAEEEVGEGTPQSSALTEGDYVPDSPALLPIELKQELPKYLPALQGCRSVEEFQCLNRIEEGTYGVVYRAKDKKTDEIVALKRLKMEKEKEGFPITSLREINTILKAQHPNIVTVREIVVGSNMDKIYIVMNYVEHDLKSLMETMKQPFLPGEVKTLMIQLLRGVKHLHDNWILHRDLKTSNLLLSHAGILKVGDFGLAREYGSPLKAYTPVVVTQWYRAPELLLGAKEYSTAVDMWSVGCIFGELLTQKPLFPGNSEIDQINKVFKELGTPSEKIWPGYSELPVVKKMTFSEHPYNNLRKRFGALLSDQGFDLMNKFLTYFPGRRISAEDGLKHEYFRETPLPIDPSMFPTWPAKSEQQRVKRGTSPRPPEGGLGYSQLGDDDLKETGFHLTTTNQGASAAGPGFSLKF
As to the kind of experiment: Selectivity interaction (KinomeScan (DiscoverX)) EUB0000045b CDK11A. The settings on record: at 1 µM.

As for `CNC(=O)Nc1ccc(-c2nc(N3CC4CCC(C3)O4)c3cnn(C4CCC5(CC4)OCCO5)c3n2)cc1`, the % of control in experiment [1] turned out to be 100%.
In the case of `Cc1cc([C@@H](C)Nc2ccccc2C(=O)O)c2nc(N3CCOCC3)cc(=O)n2c1` [AZD-6482], in experiment [2], the % of control is 87%.
Take `O=C(NOC[C@H](O)CO)c1ccc(F)c(F)c1Nc1ccc(I)cc1F`: the % of control in experiment [3] was 100%.
With `CN(C)CCOc1ccc(-c2nc(-c3ccncc3)c(-c3ccc4c(c3)CC/C4=N\O)[nH]2)cc1`, in experiment [4], the % of control was determined as 91%.
As to `CCN(CC)CCCCNc1ncc2cc(-c3cc(OC)cc(OC)c3)c(NC(=O)NC(C)(C)C)nc2n1`, the % of control in experiment [5] came to 100%.
In experiment [6], `COc1cc(Nc2nc(C)cc(-c3cnn4nc(OC)ccc34)n2)cc(C(F)(F)F)c1` gave a % of control of 97%.
With `C=CC(=O)Nc1cc(-n2c(=O)ccc3cnc4ccc(-c5ccc(NS(C)(=O)=O)cc5)cc4c32)ccc1C`, the % of control in experiment [7] is 100%.
